ChEMBL document CHEMBL1137686, “Synthesis and anticonvulsant activity of new N-[(4-arylpiperazin-1-yl)-alkyl] derivatives of 3-phenyl-pyrrolidine-2,5-dione” (Eur J Med Chem, 2009)
Calls of active or inactive are those of the source. The calls are words filed in the database; no cut-off is given here.

Key:
Mus musculus [1] = experiment: Neurotoxicity in ip dosed CF1 albino mouse assessed as ability to maintain equilibrium for 1 min on […] after 0.5 hrs by rotarod test; type: toxicity, organism-based; conditions: in vivo
Mus musculus [2] = experiment: Anticonvulsant activity in ip dosed CF1 albino mouse assessed as inhibition of maximal electroshock-induced seizures after 4 hrs; type: functional
Mus musculus [3] = experiment: Anticonvulsant activity in CF1 albino mouse assessed as inhibition of maximal electroshock-induced seizures at 300 mg/kg, ip after 0.5 hrs; type: functional, organism-based; parameters: dose 300 mg/kg
Mus musculus [4] = experiment: Neurotoxicity in CF1 albino mouse assessed as ability to maintain equilibrium for 1 min on […] at 300 mg/kg, ip after 4 hrs by rotarod test; type: toxicity, organism-based; parameters: dose 300 mg/kg, route intraperitoneal; conditions: in vivo
Mus musculus [5] = experiment: Neurotoxicity in CF1 albino mouse assessed as ability to maintain equilibrium for 1 min on […] at 300 mg/kg, ip after 0.5 hrs by rotarod test; type: toxicity, organism-based; parameters: dose 300 mg/kg, route intraperitoneal; conditions: in vivo
Mus musculus [6] = experiment: Anticonvulsant activity in CF1 albino mouse assessed as inhibition of maximal electroshock-induced seizures at 300 mg/kg, ip after 4 hrs; type: functional, organism-based; parameters: dose 300 mg/kg
Mus musculus [7] = experiment: Anticonvulsant activity in ip dosed CF1 albino mouse assessed as inhibition of maximal electroshock-induced seizures after 0.5 hrs; type: functional
Mus musculus [8] = species: Mus musculus; experiment: Protective index, ratio of TD50 for neurotoxicity in CF1 albino mouse to ED50 for inhibition of maximal electroshock-induced seizures in CF1 albino mouse; type: functional
Mus musculus [9] = experiment: Anticonvulsant activity in ip dosed CF1 albino mouse assessed as inhibition of subcutaneous pentylenetetrazole-induced seizures; type: functional
Mus musculus [10] = experiment: Anticonvulsant activity in CF1 albino mouse assessed as protection against maximal electroshock-induced seizures at 30 mg/kg, po after 1 hr; type: functional
Mus musculus [11] = experiment: Anticonvulsant activity in CF1 albino mouse assessed as protection against maximal electroshock-induced seizures at 30 mg/kg, po after 0.5 hrs; type: functional
Mus musculus [12] = experiment: Neurotoxicity in CF1 albino mouse assessed as motor impairment at 30 mg/kg, po after 2 hrs by rotarod test; type: toxicity, organism-based; parameters: dose 30 mg/kg, route oral; conditions: in vivo
Mus musculus [13] = experiment: Neurotoxicity in CF1 albino mouse assessed as motor impairment at 30 mg/kg, po after 0.25 hrs by rotarod test; type: toxicity, organism-based; parameters: dose 30 mg/kg, route oral; conditions: in vivo
[14] = Neurotoxicity in ip dosed CF1 albino mouse assessed as ability to maintain equilibrium for 1 min on […] by rotarod test; type: toxicity, organism-based; conditions: in vivo
Mus musculus [15] = experiment: Anticonvulsant activity in CF1 albino mouse assessed as protection against maximal electroshock-induced seizures at 30 mg/kg, po after 2 hrs; type: functional
Mus musculus [16] = experiment: Neurotoxicity in CF1 albino mouse assessed as motor impairment at 30 mg/kg, po after 4 hrs by rotarod test; type: toxicity, organism-based; parameters: dose 30 mg/kg, route oral; conditions: in vivo
Mus musculus [17] = experiment: Anticonvulsant activity in CF1 albino mouse assessed as protection against maximal electroshock-induced seizures at 30 mg/kg, po after 0.25 hrs; type: functional
Mus musculus [18] = experiment: Anticonvulsant activity against maximal electroshock-induced seizures in ip dosed CF1 albino mouse assessed as time to peak effect; type: functional
Mus musculus [19] = experiment: Anticonvulsant activity in ip dosed CF1 albino mouse assessed as inhibition of maximal electroshock-induced seizures; type: functional
Mus musculus [20] = experiment: Anticonvulsant activity in CF1 albino mouse assessed as protection against maximal electroshock-induced seizures at 30 mg/kg, po after 4 hrs; type: functional
Mus musculus [21] = experiment: Neurotoxicity in CF1 albino mouse assessed as motor impairment at 30 mg/kg, po after 0.5 hrs by rotarod test; type: toxicity, organism-based; parameters: dose 30 mg/kg, route oral; conditions: in vivo
Mus musculus [22] = experiment: Neurotoxicity in ip dosed CF1 albino mouse assessed as ability to maintain equilibrium for 1 min on […] after 4 hrs by rotarod test; type: toxicity, organism-based; conditions: in vivo
Mus musculus [23] = experiment: Neurotoxicity in CF1 albino mouse assessed as motor impairment at 30 mg/kg, po after 1 hr by rotarod test; type: toxicity, organism-based; parameters: dose 30 mg/kg, route oral; conditions: in vivo
Rattus norvegicus = experiment: Anticonvulsant activity in po dosed rat assessed as inhibition of maximal electroshock-induced seizures; type: functional
Mus musculus [24] = experiment: Neurotoxicity in CF1 albino mouse assessed as death at 300 mg/kg, ip after 0.5 hrs by rotarod test; type: toxicity, organism-based; parameters: dose 300 mg/kg, route intraperitoneal; conditions: in vivo
Mus musculus [25] = experiment: Neurotoxicity in CF1 albino mouse assessed as ability to grasp rotarod at 300 mg/kg, ip after 0.5 hrs by rotarod test; type: toxicity, organism-based; parameters: dose 300 mg/kg, route intraperitoneal; conditions: in vivo
Mus musculus [26] = experiment: Toxicity in CF1 albino mouse assessed as myoclonic jerks at 100 mg/kg, ip after 4 hrs; type: organism-based; parameters: dose 100 mg/kg, route intraperitoneal; conditions: in vivo

| SMILES | Activity (Mus musculus [1]) [mg/kg] | Activity (Mus musculus [2]) [mg/kg] | Activity (Mus musculus [3]) | Activity (Mus musculus [4]) | Activity (Mus musculus [5]) | Activity (Mus musculus [6]) | Activity (Mus musculus [7]) [mg/kg] | Activity (Mus musculus [22]) [mg/kg] | further results |
| --- | --- | --- | --- | --- | --- | --- | --- | --- | --- |
| Cc1ccccc1C1CC(=O)N(CCN2CCN(c3ccccc3F)CC2)C1=O (stereo unspecified) | 300 | 300 | inactive | Non-toxic |  |  |  |  |  |
| O=C1CC(c2ccccc2C(F)(F)F)C(=O)N1CCN1CCN(c2cccc(C(F)(F)F)c2)CC1 (stereo unspecified) |  |  | inactive | Non-toxic | Non-toxic | inactive |  |  |  |
| O=C1CC(c2ccccc2C(F)(F)F)C(=O)N1CCCN1CCN(c2cccc(C(F)(F)F)c2)CC1 (stereo unspecified) | 300 | 100 |  |  |  |  | 30 | 300 | Ratio TD50/ED50 (Mus musculus [8]): 2.72; ED50 (Mus musculus [9]): > 350 mg/kg; Activity (Mus musculus [10]): 25%; Activity (Mus musculus [11]): 25%; Activity (Mus musculus [12]): Non-toxic; Activity (Mus musculus [13]): Non-toxic; TD50 at 1 min [14]: 360 mg/kg; Activity (Mus musculus [15]): inactive; Activity (Mus musculus [16]): Non-toxic; Activity (Mus musculus [17]): inactive; Time (Mus musculus [18]): 2 h; ED50 (Mus musculus [19]): 132 mg/kg; Activity (Mus musculus [20]): inactive; Activity (Mus musculus [21]): Non-toxic; Activity (Mus musculus [23]): Non-toxic |
| O=C1CC(c2ccccc2C(F)(F)F)C(=O)N1CCN1CCN(c2cccc(Cl)c2)CC1 (stereo unspecified) |  | 100 | inactive | Non-toxic | Non-toxic |  |  |  | Activity (Mus musculus [10]): inactive; Activity (Mus musculus [11]): inactive; Activity (Mus musculus [12]): Non-toxic; Activity (Mus musculus [13]): Non-toxic; Activity (Mus musculus [15]): inactive; Activity (Mus musculus [16]): Non-toxic; Activity (Mus musculus [17]): inactive; Activity (Mus musculus [20]): inactive; Activity (Mus musculus [21]): Non-toxic; Activity (Mus musculus [23]): Non-toxic |
| O=C1CC(c2ccccc2C(F)(F)F)C(=O)N1CN1CCN(c2ccccc2F)CC1 (stereo unspecified) | 100 | 30 | inactive |  |  |  |  | 300 | Activity (Mus musculus [10]): 25%; Activity (Mus musculus [11]): 25%; Activity (Mus musculus [12]): Non-toxic; Activity (Mus musculus [13]): Non-toxic; Activity (Mus musculus [15]): inactive; Activity (Mus musculus [16]): Non-toxic; Activity (Mus musculus [20]): 25%; Activity (Mus musculus [21]): Non-toxic; Activity (Mus musculus [23]): Non-toxic |
| O=C1CC(c2ccccc2Cl)C(=O)N1CN1CCN(c2cccc(Cl)c2)CC1 (stereo unspecified) |  |  |  |  |  |  |  |  | ED50 (Rattus norvegicus): 14.2 mg/kg |
| Cc1ccccc1C1CC(=O)N(CCCN2CCN(c3cccc(Cl)c3)CC2)C1=O (stereo unspecified) | 300 | 100 |  | Non-toxic |  |  | 300 |  | Activity (Mus musculus [10]): inactive; Activity (Mus musculus [11]): inactive; Activity (Mus musculus [12]): Non-toxic; Activity (Mus musculus [13]): Non-toxic; Activity (Mus musculus [15]): 25%; Activity (Mus musculus [16]): Non-toxic; Activity (Mus musculus [17]): inactive; Activity (Mus musculus [20]): inactive; Activity (Mus musculus [21]): Non-toxic; Activity (Mus musculus [23]): Non-toxic |
| O=C1CC(c2ccccc2C(F)(F)F)C(=O)N1CCCN1CCN(c2cccc(Cl)c2)CC1 (stereo unspecified) | 100 | 100 |  |  |  |  | 100 | 300 |  |
| Cc1ccccc1C1CC(=O)N(CN2CCN(c3cccc(Cl)c3)CC2)C1=O (stereo unspecified) |  |  | inactive | Non-toxic | Non-toxic | inactive |  |  |  |
| COc1ccccc1N1CCN(CCCN2C(=O)CC(c3ccccc3C(F)(F)F)C2=O)CC1 (stereo unspecified) | 100 |  | inactive |  |  | inactive |  | 300 |  |
| O=C1CC(c2ccccc2C(F)(F)F)C(=O)N1CN1CCN(c2cccc(Cl)c2)CC1 (stereo unspecified) | 100 | 100 | inactive |  |  |  |  | 100 | Activity (Mus musculus [10]): 50%; Activity (Mus musculus [11]): 25%; Activity (Mus musculus [12]): Non-toxic; Activity (Mus musculus [13]): Non-toxic; Activity (Mus musculus [15]): 100%; Activity (Mus musculus [16]): Non-toxic; Activity (Mus musculus [17]): inactive; Activity (Mus musculus [20]): 100%; Activity (Mus musculus [21]): Non-toxic; Activity (Mus musculus [23]): Non-toxic |
| Cc1ccccc1C1CC(=O)N(CN2CCN(c3ccccc3)CC2)C1=O (stereo unspecified) | 100 | 300 | inactive |  |  |  |  | 300 |  |
| COc1ccccc1N1CCN(CCCN2C(=O)CC(c3ccccc3C)C2=O)CC1 (stereo unspecified) | 100 |  | inactive | Non-toxic |  | inactive |  |  |  |
| COc1ccccc1N1CCN(CCN2C(=O)CC(c3ccccc3C)C2=O)CC1 (stereo unspecified) | 300 |  | inactive | Non-toxic |  | inactive |  |  | Activity (Mus musculus [24]): Toxic |
| Cc1ccccc1C1CC(=O)N(CCN2CCN(c3ccccc3)CC2)C1=O (stereo unspecified) | 300 |  | inactive | Non-toxic |  | inactive |  |  |  |
| O=C1CC(c2ccccc2C(F)(F)F)C(=O)N1CCN1CCN(c2ccccc2F)CC1 (stereo unspecified) |  |  | inactive | Non-toxic | Non-toxic | inactive |  |  |  |
| O=C1CC(c2ccccc2C(F)(F)F)C(=O)N1CCCN1CCN(c2ccccc2)CC1 (stereo unspecified) | 300 |  |  | Non-toxic |  | inactive | 300 |  | Activity (Mus musculus [25]): Toxic |
| O=C1CC(c2ccccc2C(F)(F)F)C(=O)N1CN1CCN(c2cccc(C(F)(F)F)c2)CC1 (stereo unspecified) | 300 | 100 |  | Non-toxic |  |  | 100 |  |  |
| Cc1ccccc1C1CC(=O)N(CN2CCN(c3ccccc3F)CC2)C1=O (stereo unspecified) | 300 |  | inactive | Non-toxic |  | inactive |  |  |  |
| COc1ccccc1N1CCN(CN2C(=O)CC(c3ccccc3C)C2=O)CC1.Cl (stereo unspecified) | 100 |  |  |  |  | inactive | 300 | 300 | Activity (Mus musculus [26]): Toxic |
| Cc1ccccc1C1CC(=O)N(CCN2CCN(c3cccc(C(F)(F)F)c3)CC2)C1=O (stereo unspecified) |  | 300 |  | Non-toxic | Non-toxic |  | 300 |  |  |
| O=C1CC(c2ccccc2C(F)(F)F)C(=O)N1CCN1CCN(c2ccccc2)CC1 (stereo unspecified) |  |  | inactive | Non-toxic | Non-toxic | inactive |  |  |  |
| Cc1ccccc1C1CC(=O)N(CCCN2CCN(c3cccc(C(F)(F)F)c3)CC2)C1=O (stereo unspecified) |  | 100 |  | Non-toxic | Non-toxic |  | 100 |  | Activity (Mus musculus [10]): inactive; Activity (Mus musculus [11]): inactive; Activity (Mus musculus [12]): 25%; Activity (Mus musculus [13]): Non-toxic; Activity (Mus musculus [15]): inactive; Activity (Mus musculus [16]): Non-toxic; Activity (Mus musculus [17]): inactive; Activity (Mus musculus [20]): inactive; Activity (Mus musculus [21]): Non-toxic; Activity (Mus musculus [23]): Non-toxic |
